# Measurements: patent publication US9512425B2, “Inhibiting migration of cancer cells” (Cornell University, priority 2012, dated 2016)
# Experiments:
# [1] = system: p-ERK (T202); assay: Western blot of p-ERK after ATP stimulation; assay type: cell-based, human; conditions: MDA-miR-708 vs MDA cells after ATP
# Description: (§1) Cells were homogenized in 1×RIPA lysis buffer (Millipore) containing protease inhibitors (Roche Applied Science) and 1× phosphatase inhibitor (Thermo Scientific). Samples were boiled in 1× NuPAGE LDS sampling buffer (Invitrogen), and loaded onto 4-20% gradient Tris-HCl gels (BioRad). Western blotting was performed using antibodies specific for NNAT (Cat#AB27266, Abcam), EPDR1 (Cat# SC81820, Santa Cruz), SSRP1 (Cat#SC56782, Santa Cruz), HOXB3 (Cat# SC17161, Santa Cruz), HNRNPK (Cat# SC28380, Santa Cruz), CNTFR, Phospho-p44/42 MAPK (Erk1/2, Cat #4370, Cell Signaling), p44/42 MAPK (Erk1/2, Cat #4695, Cell Signaling), VINCULIN (Cat#V9131, Sigma-Aldrich), and β-ACTIN (Sigma-Aldrich).
# [2] = system: Nnat 3'-UTR; assay: 3'-UTR dual luciferase assay; assay type: cell-based, human
# Description: (§2) The 3′-UTR of a gene of interest was amplified by PCR and cloned into a pmirGLO Dual-Luciferase miRNA Target Expression Vector (Promega). To express miRNA, synthetic premiRNA precursor for miR-708 and control scrambled miRNA were purchased from Applied Biosystems (Ambion). The miRNA precursor and pmirGLO Dual-Luciferase 3′-UTR vector were co-transfected into […] cells using the siPORT NeoFX Transfection Agent following manufacturer's instructions (Ambion). Cells were harvested and lysed at 48 hr post-transfection. The interaction between miR-708 and target 3′-UTR was measured by Dual-luciferase assay system (Promega).
# [3] = system: Gon4l 3'-UTR; assay: 3'-UTR dual luciferase assay; assay type: cell-based; conditions: 293T cells, Renilla/Firefly ratio
# Description: as §2
# [4] = system: CD44 3'-UTR; assay: 3'-UTR dual luciferase assay; assay type: cell-based; conditions: 293T cells, Renilla/Firefly ratio
# Description: as §2
# [5] = system: Ntrk2 3'-UTR; assay: 3'-UTR dual luciferase assay; assay type: cell-based; conditions: 293T cells, Renilla/Firefly ratio
# Description: as §2
# [6] = system: intracellular Ca^2+; assay: Intracellular calcium measurements (Fura-2, ATP stimulation); assay type: cell-based, human
# Description: MDA-control, MDA-miR-708, and MDA-miR-708-Nnat-mut cells were grown on coverslips and used 2-3 days after plating. Cells were loaded with […] Fura-2 (Molecular Probes), a membrane-permeable Ca^2+-indicator dye, at 37° C. for 30 min. Cells were then washed and incubated in HEPES-buffered Na^+-Ringer's solution (140 mM NaCl, 5 mM KCl, 10 mM HEPES, 2 mM CaCl2, and 1 mM MgCl2, pH 7.4). Individual vials (50 mg) of the acetoxymethyl derivative of Fura-2 (Invitrogen/Molecular Probes) were stored dry at 0° C. and reconstituted in dimethyl sulfoxide at a concentration of 10 mM for each experiment. At the concentrations used, dimethyl sulfoxide had no effect on any preparation in these studies. The coverslip with the dye-loaded cells was attached to the bottom of a flow-through superfusion chamber and mounted on the stage of an inverted epifluorescence microscope (Nikon Eclipse TE-2000). The cells in the chamber were superfused and maintained at 37° C. as previously described (O'Connor and Silver, 2007). Cells were first visualized under transmitted light with a Nikon CF Fluor oil immersion objective (X40/1.3 numerical aperture) before the start of the fluorescence measurements. Images were obtained at 340 nm and 380 nm excitation and at 510 nm emission wavelengths. The ratio was determined from the images at 340 nm and 380 nm. The imaging workstation was controlled with the MetaFluor software package (Universal Imaging). Cells in the experimental field of view were analyzed singularly and independently from their neighbors. Results are expressed as means±SEM, where n refers to the total number of individually analyzed cells.
# The inventors hypothesized that miR-708-mediated targeting of Nnat may lead to impaired regulation of intracellular Ca^2+. This would explain the inhibitory effect on the migratory phenotype of metastatic tumor cells observed earlier (see, e.g., FIG. 1E). To test this hypothesis, MDA and MDA-miR-708 cells were loaded with the intracellular calcium indicator, Fura-2, and the 340/380 ratios were monitored in the absence and presence of exogenous ATP. ATP binds ATP receptors on the cell surface, resulting in the cleavage of PIP2 into IP3 and DAG. IP3 binds IP3 receptors on the endoplasmic reticulum membrane, and releases ionized calcium from the endoplasmic reticulum (Vandewalle et al., 1994), (Berridge et al., 2003; Swanson et al., 1998). Thus, ATP-stimulated calcium release from endoplasmic reticulum was used to evaluate the consequence of Nnat suppression by miR-708.
# [7] = system: p-FAK (S910); assay: Western blot and immunostaining of p-FAK; assay type: cell-based, human
# Description: as §1
# For immunofluorescence staining, cells were fixed overnight in paraformaldehyde before incubation with primary antibodies; mouse-monoclonal VINCULIN (Cat#V9131, Sigma-Aldrich, 1:400) and rabbit-polyclonal phosphorylated FAK (pS910, Cat #44596G, Invitrogen, 1:1000). Alexa Flour 568 or Alexa Fluor 647 anti-mouse IgG, and Alexa Fluor 647 anti-rabbit IgG (Invitrogen), were used for visualization. Following incubation with secondary antibodies the tissue sections were treated with Rhodamine Phalloidin (Cat# R415, Invitrogen). […] Images were analyzed using Axiovision 4.6 software (Carl Zeiss Inc.).
# [8] = system: Nnat; assay: Nnat expression in MDA-MB-436 cells overexpressing miR-708; assay type: cell-based, human; conditions: MDA-MB-436 cells expressing miR-708
# Description: Total RNA was extracted using the RNeasy kit (Qiagen) and converted to cDNA using Superscript II reverse transcriptase (Invitrogen). QPCR primers for Nnat were purchased from SABiosciences (Cat #PPT11378, SABiosciences), and quantitative PCR performed using iQ™ SYBER Green master mix (Biorad, Hercule, Calif.). Each sample was run in triplicate to minimize pipetting error. A standard protocol of initial denaturation at 95° C. for 3 min, 40 cycles of 95° C. for 20 sec, 60° C. for 30 sec, and 72° C. for 30 sec, followed by final extension at 72° C. for 5 min and melt curve analysis was applied on a Biorad CFX96 Real Time System (BioRad) coupled with Bio-Rad-CFX Manager software. The relative abundance of each transcript was compared with the control.
substance,measurement,setting,value
"miR-708: microRNA, mature sequence 5'-AAGGAGCUUACAAUCUAGCUGGG-3' (SEQ ID NO: 2); expressed from lentiviral vector or used as synthetic precursor",activated Erk (p-Erk) levels,[1],reduced levels
same,repression of 3'-UTR luciferase reporter,"[2]; 293T cells, Renilla/Firefly ratio",significant repression
same,repression of wild type UTR (Nnat-UTR) reporter,"[2]; synthetic miR-708 vs scrambled miRNA, intact UTR",effectively suppressed
same,repression of mutant UTR (Nnat-UTR-mut) reporter,"[2]; synthetic miR-708 vs scrambled miRNA, mutated binding site",refractory to suppression
same,repression of 3'-UTR luciferase reporter,[3],significant repression
same,repression of 3'-UTR luciferase reporter,[4],significant repression
same,repression of 3'-UTR luciferase reporter,[5],significant repression
same,regulation of intracellular Ca^2+ after ATP,[6]; MDA cells expressing miR-708 vs MDA,attenuated regulation
same,"slope, initial rate of calcium regulation back to baseline (representative trace)","[6]; MDA-miR-708 cells stimulated with ATP, control slope 0.72",0.3 ratio/min
same,pre-ATP stimulation (basal) ratio,"[6]; MDA-miR-708 cells, mean±SEM",0.97±0.01
same,peak calcium response due to ATP stimulation (340/380 ratio),"[6]; MDA-miR-708 cells, mean±SEM, n=107",1.77±0.06
same,initial rate of calcium regulation back to baseline,"[6]; MDA-miR-708 cells, n=105, control 0.52±0.03",0.33±0.02
same,p-FAK levels following ATP-mediated Ca^2+ release,"[7]; Western blot, MDA-miR-708 vs MDA cells",increased in MDA and not in MDA-miR-708 cells
same,p-FAK at vinculin+ focal adhesions,"[7]; immunostaining, MDA-miR-708 cells",devoid of p-FAK
same,Nnat levels,[8],decreased levels of Nnat
